# Assay results published in patent US20200199501A1, “SOLVENT COMPOSITIONS CONTAINING 1,2,2-TRIFLUORO-1-TRIFLUOROMETHYLCYCLOBUTANE (TFMCB)” (Honeywell International Inc., priority 2018, published 2020).
# Assay: Acute inhalation toxicity (OECD Guideline No. 403)
# Details: in vivo, inhaled, OECD Guideline No. 403 (2009), Method B.2 of Commission Regulation (EC) No. 440/2008
# Source text: LC50 is a measure of the acute toxicity of a compound. The acute inhalation toxicity of a compound can be assessed using the method described in the OECD Guideline for Testing of Chemicals No. 403 “Acute Inhalation Toxicity” (2009), Method B.2. (Inhalation) of Commission Regulation (EC) No. 440/2008.
smiles,measurement,value
"FC(F)(F)C1(F)CCC1(F)F (stereo not shown) [TFMCB, 1,2,2-trifluoro-1-trifluoromethylcyclobutane]",LC50,> 19.1 µg/mL
